Reference: ChEMBL document CHEMBL5543059, “Discovery of anti-inflammatory natural flavonoids: Diverse scaffolds and promising leads for drug discovery” (Eur J Med Chem, 2023)

system: BV-2; assay: Antiinflammatory activity against mouse BV-2 cells assessed as reduction in LPS induced NO production measured for 24 hrs by Griess reagent based analysis; assay type: functional, cell-based; details: BV-2, 24 h

SMILES | IC50 [µM]
CNC(=N)NCCC[C@H](N)C(=O)O [TILARGININE] | 14.8

system: BV-2; assay: Antiinflammatory activity in mouse BV-2 cells assessed as reduction in LPS-induced NO production pre-treated with compound for 1 hr followed by LPS-stimulation and measured for 23 hrs by Griess reagent based analysis; assay type: functional, cell-based; details: not given

SMILES | IC50 [µM]
COc1c(-c2ccc3c(c2)OCO3)oc2c(ccc3oc(C(C)(C)O)cc32)c1=O | 11.3
COc1cc2oc(-c3ccc4c(c3)OCO4)c(OC)c(=O)c2cc1OC | 11.3
COc1c(-c2ccccc2)oc2c3c(ccc2c1=O)OC(C)(C)[C@H](O)C3 | 11.3
CC(=O)O[C@@H]1c2c(ccc3c(=O)c(O)c(-c4ccccc4)oc23)OC(C)(C)[C@@H]1OC(C)=O | 11.3

Second part, the compound after the results:

IC50 [µM] | SMILES
6.88 | COc1c(-c2ccc(O)c(O)c2)oc2c(CC=C(C)C)c3c(c(O)c2c1=O)C=CC(C)(C)O3
2.88 | CC(C)=CCc1cc(-c2oc3cc(O)cc(O)c3c(=O)c2O)ccc1O [ISOLICOFLAVONOL]

system: Mus musculus; assay: Antiinflammatory activity against TPA-induced CD-1 mouse ear edema model assessed as reduction in ear edema at 1 uM relative to control; assay type: functional; set-up: scale not given: the % may be the effect or the level left; details: not given

SMILES | Activity [%]
CC(=O)O[C@@H]1c2c(ccc3c(=O)c(O)c(-c4ccccc4)oc23)OC(C)(C)[C@@H]1OC(C)=O | 12.28
O=C1c2c(O)cc(O)cc2O[C@H](c2ccc(O)c(O)c2)[C@H]1O [(+)-TAXIFOLIN] | 12
O=C1c2c(O)cc(O)cc2O[C@H](c2ccccc2)[C@H]1O [PINOBAKSIN] | 12.28

system: Neutrophil; assay: Inhibition of fMLF/CB-induced human Neutrophil activation assessed as reduction in superoxide anion generation pre-incubated for 2 mins prior to CB induction for 3 mins followed by fMLF addition by spectrophotometric analysis; assay type: functional, cell-based; details: not given

SMILES | IC50 [µM]
COc1cc(O)c2c(=O)cc(-c3ccc(OC)c(OC)c3)oc2c1 | ≤ 12.5
COc1cc(O)c2c(=O)cc(-c3ccc(OC)c(OC/C=C(\C)CCC=C(C)C)c3)oc2c1 | ≤ 12.5
COc1cc(O)c2c(=O)cc(-c3cc(OC)c(OC/C=C(\C)CCC=C(C)C)c(OC)c3)oc2c1 | ≤ 12.5

system: RAW264.7; assay: Antiinflammatory activity in LPS-induced mouse RAW264.7 cells assessed as reduction in COX2 mRNA expression incubated for 24 hrs by qRT-PCR analysis; assay type: functional, cell-based; details: RAW264.7, 24 h

SMILES | IC50 [µM]
CC(C)=CCC/C(C)=C/Cc1c(C2CC(=O)c3c(O)cc(O)cc3O2)ccc(O)c1O (stereo unspecified) | 11.7
CC(C)=CCC/C(C)=C/Cc1c(O)cc2c(c1O)C(=O)CC(c1ccc(O)c(O)c1)O2 (stereo unspecified) | 11.7
CC(C)=CCC/C(C)=C/Cc1cc(C2CC(=O)c3c(O)cc(O)cc3O2)cc(O)c1O (stereo unspecified) | 11.7
CC(C)=CCC/C(C)=C/Cc1cc(C2CC(=O)c3c(O)cc(O)cc3O2)ccc1O (stereo unspecified) | 11.7

system: not listed separately; assay: Anti-inflammatory activity in carrageenan-induced human PBMC cells assessed as inhibition of IL-beta leakage at 10 uM measured for 24 hrs relative to control; assay type: functional; set-up: scale not given: the % may be the effect or the level left; details: not given

SMILES | Activity [%]
COc1ccc(-c2cc(=O)c3c(O)c(OC)c(OC)cc3o2)cc1OC | 16.8
COc1ccc(-c2cc(=O)c3c(O)c(OC)c(OC)c(O)c3o2)cc1OC | 34.4
COc1ccc(-c2cc(=O)c3c(O)c(OC)c(OC)c(OC)c3o2)cc1 [GARDENIN B] | 33.8

system: RAW264.7; assay: Anti-inflammatory activity in mouse RAW264.7 cells assessed as inhibition of LPS-induced nitric oxide production measured after 18 hrs by Griess assay; assay type: functional, cell-based; details: RAW264.7, 18 h

SMILES | IC50
Cc1c(O)c2c(c(C(=O)C(C)C)c1O)OC(c1ccccc1)CC2=O (stereo unspecified) | 9.73 µM
Cc1c(O)c(C)c2c(c1O)C(=O)C[C@@H](c1ccc(O)c(O)c1)O2 | 20 µM
O=C1CC(c2ccc(O)cc2O)Oc2cc(O)cc(O)c21 (stereo unspecified) [STEPPOGENIN] | 6.1 µg/mL

system: Neutrophil; assay: Inhibition of fMLF/CB-induced human Neutrophil activation assessed as reduction in elastase release; assay type: functional, cell-based; details: not given

SMILES | IC50 [µM]
c1ccc2c(c1)[I+]c1ccccc1-2 [DIPHENYLENEIODONIUM] | 1

system: RAW264.7; assay: Anti-neuroinflammatory activity in mouse RAW264.7 cells assessed as inhibition of LPS-induced NO production pre-incubated for 1 hr followed by LPS stimulation and measured after 24 hrs by Griess reagent based assay; assay type: functional, cell-based; details: not given

SMILES | IC50 [µM]
COc1c2c(cc3oc(=O)c(-c4ccc(O)cc4)c(O)c13)OC(C)(C)C=C2 | 0.89
COc1c(-c2ccc3c(c2)OCO3)c(=O)oc2cc3oc(C(C)(C)O)cc3c(OC)c12 | 0.89
C=C(C)c1oc2c(OC)c3oc(=O)c(-c4ccc(OC)cc4)c(O)c3c(OC)c2c1OC | 0.89
C=C(C)c1cc2c(OC)c3c(O)c(-c4ccc(OC)cc4)c(=O)oc3c(OC)c2o1 | 0.89
C=C(C)c1cc2c(OC)c3c(O)c(-c4ccc5c(c4)OCO5)c(=O)oc3c(OC)c2o1 | 0.89
COc1ccc(-c2c(OC)c3c(OC)c4cc(C(C)(C)O)oc4cc3oc2=O)cc1 | 0.89
COc1ccc(-c2c(O)c3c(OC)c4c(OC)c(C(C)C)oc4c(OC)c3oc2=O)cc1OC | 0.89

system: BV-2; assay: Anti-inflammatory activity in mouse BV-2 cells assessed as inhibition of LPS-induced NO production preincubated with compound for 1 hrs followed by LPS stimulation and measured after 24 hrs by Griess reagent based assay; assay type: functional, cell-based; details: not given

SMILES | IC50 [µM]
COc1cc(O)c2c(=O)c(OC)c(-c3ccc(O)c(O)c3)oc2c1 | 4.2
COc1ccc(-c2oc3cc(O)cc(O)c3c(=O)c2OC)cc1O | 11.1

system: THP-1; assay: Anti-inflammatory activity in LPS-stimulated human THP-1 cells assessed as reduction of TNFalpha measured for 12 hrs by ELISA method; assay type: functional, cell-based; details: THP-1, 12 h

SMILES | IC50 [µM]
COc1ccc2oc(-c3ccc(OC)c(OC)c3)cc(=O)c2c1 | 2.4
COc1c(OC)c(O)c2c(=O)cc(-c3ccc(O)c(O)c3)oc2c1OC [SIDERITIFLAVONE] | 12.4
COc1c(OC)c(O)c2c(=O)cc(-c3ccc(O)cc3)oc2c1OC [XANTHOMICROL] | 8.1

system: Mus musculus; assay: Antiinflammatory activity against TPA-induced CD-1 mouse ear edema model assessed as reduction in ear edema at 0.25 mg/kg relative to control; assay type: functional; set-up: scale not given: the % may be the effect or the level left; details: not given

SMILES | Activity [%]
O=C1C[C@@H](c2ccccc2)Oc2cc(O)cc(O)c21 [PINOCEMBRIN] | 67.4
COc1cc(O)c2c(c1)O[C@H](c1ccc(O)cc1)CC2=O [SAKURANETIN] | 45.8

system: B16-F10; assay: Anti-inflammatory activity in LPS-stimulated mouse B16-F10 cells assessed as reduction in TNFalpha production measured for 12 hrs by ELISA method; assay type: functional, cell-based; details: B16-F10, 12 h

SMILES | IC50 [µM]
COc1ccc2oc(-c3ccc(OC)c(OC)c3)cc(=O)c2c1 | 1.3
COc1c(OC)c(O)c2c(=O)cc(-c3ccc(O)c(O)c3)oc2c1OC [SIDERITIFLAVONE] | 5.6
COc1c(OC)c(O)c2c(=O)cc(-c3ccc(O)cc3)oc2c1OC [XANTHOMICROL] | 3.8
